Reference: article PMC8811472, “Systematic In Vitro Evaluation of a Library of Approved and Pharmacologically Active Compounds for the Identification of Novel Candidate Drugs for KMT2A-Rearranged Leukemia” (Frontiers in Oncology, 2022)

Key:
[1] = tested on: LNCaP cells; test: 72-hour resazurin-based cytotoxicity assay, LNCaP; assay type: cell-based, human; conditions: Homo sapiens, prostate carcinoma
Experimental: (§1) All cell lines used in this study were mycoplasma-free and have been authenticated using STR profiling. Cells were cultured as previously described ([7], [8]). Characteristics of the leukemia cell lines used in this study are described in Supplementary Table 1 . Peripheral blood mononuclear cells from healthy donors were purchased from Australian Red Cross.
(§2) The cytotoxicity of drugs was assessed through resazurin-based assays and the inhibitory concentration resulting in 50% reduction of cell survival relative to control (IC50) was calculated as previously described ([7]). In synergy studies, cells were exposed to a dilution series of compounds, as single agents or in combination, in resazurin-based assays (72 hours) as described ([8]–[10]). The occurrence of synergy was determined with the Bliss Independence model as previously described ([8]–[10]). Bliss Prediction curves indicated the predicted percentage viability of the cells when exposed to the combination of compounds if both compounds work additively together. Synergy was visualised as the presence of a lower cell viability upon combination of two compounds compared to the viability predicted based on the presence of an additive effect of the compounds (i.e., the viability curve of the combination runs below the Bliss Prediction curve). […]

[2] = tested on: peripheral blood mononuclear cells from healthy donors; test: 72-hour resazurin-based viability assay, PBMC from healthy donors; assay type: cell-based, human; conditions: Homo sapiens, PBMC, 72 h, 72 h resazurin
Experimental: as §1
(§3) The cytotoxicity of drugs was assessed through resazurin-based assays and the inhibitory concentration resulting in 50% reduction of cell survival relative to control (IC50) was calculated as previously described ([7]). In synergy studies, cells were exposed to a dilution series of compounds, as single agents or in combination, in resazurin-based assays (72 hours) as described ([8]–[10]). The occurrence of synergy was determined with the Bliss Independence model as previously described ([8]–[10]). Bliss Prediction curves indicated the predicted percentage viability of the cells when exposed to the combination of compounds if both compounds work additively together. Synergy was visualised as the presence of a lower cell viability upon combination of two compounds compared to the viability predicted based on the presence of an additive effect of the compounds (i.e., the viability curve of the combination runs below the Bliss Prediction curve). The percentage of apoptotic cells was assessed by annexin V and 7-Aminoactinomycin D (7-AAD) (BD Biosciences, Australia) flow cytometry as previously described ([7]).

[3] = tested on: PER-785 cells; test: 72-hour resazurin-based cytotoxicity assay, PER-785; assay type: cell-based, human; conditions: Homo sapiens, PER-785, KMT2A-r t(4;11), infant ALL
Experimental: as §1, §2

[4] = tested on: HEY cells; test: 72-hour resazurin-based cytotoxicity assay, HEY; assay type: cell-based, human; conditions: Homo sapiens, ovarian carcinoma
Experimental: as §1, §2

[5] = tested on: CEM cells; test: 72-hour resazurin-based cytotoxicity assay, CEM; design: species or system human; conditions: Homo sapiens, CCRF-CEM, KMT2A-wt, childhood T-cell ALL
Experimental: as §1, §3

[6] = tested on: KOPN-8 cells; test: 72-hour resazurin-based cytotoxicity assay, KOPN-8; design: species or system human; conditions: Homo sapiens, KOPN-8, KMT2A-r t(11;19), infant pre-B cell ALL
Experimental: as §1, §2

[7] = tested on: REH cells; test: 72-hour resazurin-based cytotoxicity assay, REH; design: species or system human; conditions: Homo sapiens, KMT2A-wt, pre-B cell ALL
Experimental: as §1, §3

[8] = tested on: MOLM-13 cells; test: 72-hour resazurin-based cytotoxicity assay, MOLM-13; assay type: cell-based, human; conditions: Homo sapiens, MOLM-13, KMT2A-r t(9;11), AML
Experimental: as §1, §3

[9] = tested on: KELLY cells; test: 72-hour resazurin-based cytotoxicity assay, KELLY; assay type: cell-based, human; conditions: Homo sapiens, neuroblastoma
Experimental: as §1, §2

[10] = tested on: MCF-7 cells; test: 72-hour resazurin-based cytotoxicity assay, MCF-7; assay type: cell-based, human; conditions: Homo sapiens, MCF7, MCF-7, breast adenocarcinoma
Experimental: as §1, §2

[11] = tested on: WI-38 cells; test: 72-hour resazurin-based cytotoxicity assay, WI-38; assay type: cell-based, human; conditions: Homo sapiens, WI-38, non-malignant, normal lung
Experimental: as §1, §2

[12] = tested on: PER-485 cells; test: 72-hour resazurin-based cytotoxicity assay, PER-485; assay type: cell-based, human; conditions: Homo sapiens, PER-485, KMT2A-r t(4;11), infant ALL derived
Experimental: as §1, §3

[13] = tested on: KP-MO-TS cells; test: 72-hour resazurin-based cytotoxicity assay, KP-MO-TS; assay type: cell-based, human; conditions: Homo sapiens, CALM-AF10, AML
Experimental: as §1, §2

[14] = tested on: PER-490 cells; test: 72-hour resazurin-based cytotoxicity assay, PER-490; assay type: cell-based, human; conditions: Homo sapiens, PER-490, KMT2A-r t(4;11), infant ALL
Experimental: as §1, §2

[15] = tested on: PER-703 cells; test: 72-hour resazurin-based cytotoxicity assay, PER-703; assay type: cell-based, human; conditions: Homo sapiens, PER-703, KMT2A-r t(1;11), infant ALL derived
Experimental: as §1, §2

[16] = tested on: U937 cells; test: 72-hour resazurin-based cytotoxicity assay, U937; assay type: cell-based, human; conditions: Homo sapiens, U-937, U937, CALM-AF10, AML
Experimental: as §1, §2

[17] = tested on: 27/87 cells; test: 72-hour resazurin-based cytotoxicity assay, 27/87; assay type: cell-based, human; conditions: Homo sapiens, 27/87, endometrioid ovarian cancer
Experimental: as §1, §2

[18] = tested on: THP-1 cells; test: 72-hour resazurin-based cytotoxicity assay, THP-1; assay type: cell-based, human; conditions: Homo sapiens, THP-1, KMT2A-r t(9;11), infant AML
Experimental: as §1, §3

[19] = tested on: PER-826 cells; test: 72-hour resazurin-based cytotoxicity assay, PER-826; assay type: cell-based, human; conditions: Homo sapiens, PER-826, KMT2A-r complex t(11;19), infant ALL
Experimental: as §1, §2

[20] = tested on: RS4;11 cells; test: 72-hour resazurin-based cytotoxicity assay, RS4;11; design: species or system human; conditions: RS4;11, KMT2A-r t(4;11), pre-B cell ALL
Experimental: as §1, §3

[21] = tested on: KMT2A-r and CALM-AF10 translocated leukemia cell lines; test: Cytotoxicity in expanded cell line panel (range over sensitive lines); assay type: cell-based; conditions: Homo sapiens; 9 out of 11 KMT2A-r leukemia cell lines
Experimental: as §1, §2

[22] = tested on: PER-485 cells; test: Annexin V/7-AAD flow cytometry, PER-485; assay type: cell-based, human; conditions: KMT2A-r leukemia cells (PER-485)
Experimental: as §3

[23] = tested on: Jurkat cells; test: 72-hour resazurin-based cytotoxicity assay, Jurkat; design: species or system human; conditions: Homo sapiens, KMT2A-wt, childhood T-cell ALL
Experimental: as §1, §3

[24] = tested on: H460 cells; test: 72-hour resazurin-based cytotoxicity assay, H460; assay type: cell-based, human; conditions: Homo sapiens, NCI-H460, H460, lung carcinoma
Experimental: as §1, §2

[25] = tested on: MV4;11 cells; test: 72-hour resazurin-based cytotoxicity assay, MV4;11; assay type: cell-based, human; conditions: Homo sapiens, MV4;11, KMT2A-r t(4;11), childhood AML
Experimental: as §1, §2

[26] = tested on: SEMK2 cells; test: 72-hour resazurin-based cytotoxicity assay, SEMK2; design: species or system human; conditions: Homo sapiens, SEMK2, KMT2A-r t(4;11), pre-B cell childhood ALL
Experimental: as §1, §3

[27] = tested on: MRC-5 cells; test: 72-hour resazurin-based cytotoxicity assay, MRC-5; assay type: cell-based, human; conditions: Homo sapiens, MRC5, MRC-5, non-malignant, normal lung
Experimental: as §1, §3

[28] = tested on: BE(2)C cells; test: 72-hour resazurin-based cytotoxicity assay, BE(2)C; assay type: cell-based, human; conditions: Homo sapiens, childhood neuroblastoma
Experimental: as §1, §2

[29] = tested on: THP-1 and REH versus 2-Cl-ATP-sensitive KMT2A-r cells; test: Resazurin-based viability assays of nucleoside analogs in leukemia cell line panel; design: species or system human
Experimental: as §3

Structure (SMILES): Nc1nc(Cl)nc2c1ncn2[C@@H]1O[C@H](COP(=O)(O)OP(=O)(O)OP(=O)(O)O)[C@@H](O)[C@H]1O [2-Cl-ATP, 2-chloroadenosine triphosphate]
- IC50 [1]: 14.9 µM
- IC50 ([2]; Donor 1): 5.4 µM
- IC50 ([2]; Donor 2): 4.8 µM
- IC50 ([2]; Donor 3): 4.2 µM
- IC50 [3]: 3.5 µM
- IC50 [4]: > 20 µM
- IC50 [5]: 11.4 µM
- IC50 [6]: 13.4 µM
- IC50 [7]: > 20 µM
- IC50 [8]: 5.6 µM
- IC50 [9]: > 20 µM
- IC50 [10]: > 20 µM
- IC50 [11]: > 20 µM
- IC50 [12]: 2.5 µM
- IC50 [13]: 4.4 µM
- IC50 [14]: 4.5 µM
- IC50 [15]: 4.3 µM
- IC50 [16]: 3.5 µM
- IC50 [17]: > 20 µM
- IC50 [18]: > 20 µM
- IC50 [19]: 2.6 µM
- IC50 ([20]; Homo sapiens, RS4-11, 72 h): 5.8 µM
- IC50 [20]: 5.9 µM
- IC50 [21]: 2.5 to 5.9 µM
- induction of apoptosis (annexin V/7AAD) [22]: inducing apoptosis
- IC50 [23]: > 20 µM
- IC50 [24]: > 20 µM
- IC50 [25]: 2.7 µM
- IC50 [26]: 5.1 µM
- IC50 [27]: > 20 µM
- IC50 [28]: > 20 µM

Structure (SMILES): Nc1nc(Cl)nc2c1ncn2[C@@H]1O[C@H](CO)[C@@H](O)[C@H]1O [2-CADO, 2-chloroadenosine]
- response of 2-Cl-ATP-resistant cell lines THP-1 and REH compared with 2-Cl-ATP-sensitive KMT2A-r cells [29]: less responsive
